Experimental data reported in patent publication US6737409B2, “Dolastatin 10 derivatives” (Hoffmann-La Roche Inc., priority 2001, dated 2004).
Where two headings read alike, the source gives them in different places.

Legend:
[1] = Maximum tolerated dose (MTD) by i.v. administration in mice; details: mouse, in vivo, iv, read-out: maximum tolerated doses (MTD)
Procedure: The maximum tolerated doses (MTD) of the following representative compounds
of the present invention were examined by i.v. administration in mice. The respective MTD values of the compounds were 14, 18, 10, 8, 8, 2 and 2 mg/kg.

HCT 116 = test: Antiproliferative activity assay (WST-8); format: cell-based
Procedure: Antiproliferative activity assay was carried out as follows. A single suspension of tumor cells was inoculated to the serially diluted 96-well microtestplate. Then the testplate was incubated in the 5% CO2 ambience at 37° C. for 4 days (2-3×10^3 cells/well). The degree of cell growth in a monolayer was measured by using WST-8 (Dojindo, Japan). IC50 values of drugs against tumor cells were calculated as the concentration of drug yielding 50% OD of the control growth.

[2] = Homo sapiens, HCT-116, 96 h, read-out: HCT 116 IC50 (nM)
[3] = Homo sapiens, HCT-116, 96 h, incubated 4 days, WST-8, concentration of drug yielding 50% OD of the control growth, read-out: HCT 116 IC50
[4] = incubated 4 days, WST-8, concentration of drug yielding 50% OD of the control growth, read-out: HCT 116 IC50

SMILES	MTD [1] [mg/kg]	IC50 (HCT 116; [3]) [nM]	other results
CCSC(C(C)C(=O)NCCc1cccc(O)c1)C1CCCN1C(=O)CC(OC)C(C(C)CC)N(C)C(=O)C(NC(=O)C(C(C)C)N(C)C)C(C)C (single isomer, unassigned) [N-(1-{[1-sec-Butyl-4-(2-{1-ethylsulfanyl-2-[2-(3-hydroxy-phenyl)-ethylcarbamoyl]-propyl}-pyrrolidin-1-yl)-2-methoxy-4-oxo-butyl]-methyl-carbamoyl}-2-methyl-propyl)-2-dimethylamino-3-methyl-butyramide]	2	–	IC50 (HCT 116; [2]): 0.84 nM
CCC(C)C(C(CC(=O)N1CCCC1C(SC)C(C)C(=O)NCCc1cccc(O)c1)OC)N(C)C(=O)C(NC(=O)C(C(C)C)N(C)C)C(C)C (single isomer, unassigned) [N-(1-{[1-sec-Butyl-4-(2-{2-[2-(3-hydroxy-phenyl)-ethylcarbamoyl]-1-methylsulfanyl-propyl}-pyrrolidin-1-yl)-2-methoxy-4-oxo-butyl]-methyl-carbamoyl}-2-methyl-propyl)-2-dimethylamino-3-methyl-butyramide]	2	–	IC50 (HCT 116; [2]): 0.19 nM
CCSC(C(C)C(=O)N(C)CCc1cccc(O)c1)C1CCCN1C(=O)CC(OC)C(C(C)CC)N(C)C(=O)C(NC(=O)C(C(C)C)N(C)C)C(C)C (single isomer, unassigned) [N-[1-({1-sec-Butyl-4-[2-(1-ethylsulfanyl-2-{[2-(3-hydroxy-phenyl)-ethyl]-methyl-carbamoyl}-propyl)-pyrrolidin-1-yl]-2-methoxy-4-oxo-butyl}-methyl-carbamoyl)-2-methyl-propyl]-2-dimethylamino-3-methyl-butyramide]	8	0.11	–
CCC(C)C(C(CC(=O)N1CCCC1C(SC)C(C)C(=O)N(C)CCc1cccc(O)c1)OC)N(C)C(=O)C(NC(=O)C(C(C)C)N(C)C)C(C)C (single isomer, unassigned) [N-[1-({1-sec-Butyl-4-[2-(2-{[2-(3-hydroxy-phenyl)-ethyl]-methyl-carbamoyl}-1-methylsulfanyl-propyl)-pyrrolidin-1-yl]-2-methoxy-4-oxo-butyl}-methyl-carbamoyl)-2-methyl-propyl]-2-dimethylamino-3-methyl-butyramide]	8	0.66	–
CCC(C)C(C(CC(=O)N1CCCC1C(CC(=O)NCCc1ccccc1)SC)OC)N(C)C(=O)C(NC(=O)C(NC)C(C)C)C(C)C (centres unmarked) [N-[1-({1-sec-Butyl-2-methoxy-4-[2-(1-methylsulfanyl-2-phenethylcarbamoylethyl)pyrrolidin-1-yl]-4-oxo-butyl}-methyl-carbamoyl)-2-methyl-propyl]-3-methyl-2-methylamino-butyramide]	14	0.12	–
CCC(C)C(C(CC(=O)N1CCCC1C(CC(=O)NCCc1ccccc1)SC(C)C)OC)N(C)C(=O)C(NC(=O)C(NC)C(C)C)C(C)C (centres unmarked) [N-[1-({1-sec-Butyl-4-[2-(1-isopropylsulfanyl-2-phenethylcarbamoyl-ethyl)-pyrrolidin-1-yl]-2-methoxy-4-oxo-butyl}-methyl-carbamoyl)-2-methyl-propyl]-3-methyl-2-methylamino-butyramide]	10	0.65	–
CCC(C)C(C(CC(=O)N1CCCC1C(CC(=O)NCCc1ccccc1)S(C)(=O)=O)OC)N(C)C(=O)C(NC(=O)C(NC)C(C)C)C(C)C (centres unmarked) [N-[1-({1-sec-Butyl-4-[2-(1-methanesulfonyl-2-phenethylcarbamoyl-ethyl)-pyrrolidin-1-yl]-2-methoxy-4-oxo-butyl}-methyl-carbamoyl)-2-methyl-propyl]-3-methyl-2-methylamino-butyramide]	18	0.77	–
C=CCSC(CC(=O)NCCc1ccccc1)C1CCCN1C(=O)CC(OC)C(C(C)CC)N(C)C(=O)C(NC(=O)C(C(C)C)N(C)C)C(C)C (centres unmarked) [N-[1-({4-[2-(1-Allylsulfanyl-2-phenethylcarbamoyl-ethyl)-pyrrolidin-1-yl]-1-sec-butyl-2-methoxy-4-oxo-butyl}-methyl-carbamoyl)-2-methyl-propyl]-2-dimethylamino-3-methyl-butyramide]	–	0.55	–
CCC(C)C(C(CC(=O)N1CCCC1C(CC(=O)NCCc1ccccc1)SCc1ccccc1)OC)N(C)C(=O)C(NC(=O)C(C(C)C)N(C)C)C(C)C (centres unmarked) [N-[1-({4-[2-(1-Benzylsulfanyl-2-phenethylcarbamoyl-ethyl)-pyrrolidin-1-yl]-1-sec-butyl-2-methoxy-4-oxo-butyl}-methyl-carbamoyl)-2-methyl-propyl]-2-dimethylamino-3-methyl-butyramide]	–	0.52	–
CCC(C)C(C(CC(=O)N1CCCC1C(SC)C(C)C(=O)NCCc1ccccc1)OC)N(C)C(=O)C(NC(=O)C(NC)C(C)C)C(C)C (centres unmarked) [N-[-({1-sec-Butyl-2-methoxy-4-[2-(1-methylsulfanyl-2-phenethylcarbamoyl-propyl)-pyrrolidin-1-yl]-4-oxo-butyl}-methyl-carbamoyl)-2-methyl-propyl]-2-methylamino-3 methyl-butyramide]	–	–	IC50 (HCT 116; [4]): 1 nM
CCC(C)C(C(CC(=O)N1CCCC1C(CC(=O)NCCc1ccccc1)Sc1ccccc1)OC)N(C)C(=O)C(NC(=O)C(NC)C(C)C)C(C)C (centres unmarked) [N-[-({1-sec-Butyl-2-methoxy-4-oxo-4-[2-(2-phenethylcarbamoyl-1-phenylsulfanyl-ethyl)-pyrrolidin-1-yl]-butyl}-methyl-carbamoyl)-2-methyl-propyl]-3-methyl-2-methylamino-butyramide]	–	–	IC50 (HCT 116; [4]): 0.87 nM
CCC(C)C(C(CC(=O)N1CCCC1C(CC(=O)NCCc1ccccn1)SC)OC)N(C)C(=O)C(NC(=O)C(C(C)C)N(C)C)C(C)C (centres unmarked) [N-{1-[(1-sec-Butyl-2-methoxy-4-{2-[1-methylsulfanyl-2-(2-pyridin-2-yl-ethylcarbamoyl)-ethyl]-pyrrolidin-1-yl}-4-oxo-butyl)-methyl-carbamoyl]-2-methyl-propyl}-2-dimethylamino-3-methyl-butyramide]	–	0.9	–
CCC(C)C(C(CC(=O)N1CCCC1C(CC(=O)NCCc1cccnc1)SC)OC)N(C)C(=O)C(NC(=O)C(C(C)C)N(C)C)C(C)C (centres unmarked) [N-{1-[(1-sec-Butyl-2-methoxy-4-{2-[1-methylsulfanyl-2-(2-pyridin-3-yl-ethylcarbamoyl)-ethyl]-pyrrolidin-1-yl}-4-oxo-butyl)-methyl-carbamoyl]-2-methyl-propyl}-2-dimethylamino-3-methyl-butyramide]	–	0.91	–
CCC(C)C(C(CC(=O)N1CCCC1C(CC(=O)NCCc1cccs1)SC)OC)N(C)C(=O)C(NC(=O)C(C(C)C)N(C)C)C(C)C (centres unmarked) [N-{1-[(1-sec-Butyl-2-methoxy-4-{2-[1-methylsulfanyl-2-(2-thiophen-2-yl-ethylcarbamoyl)-ethyl]-pyrrolidin-1-yl}-4-oxo-butyl)-methyl-carbamoyl]-2-methyl-propyl}-2-dimethylamino-3-methyl-butyramide]	–	0.5	–
CCC(C)C(C(CC(=O)N1CCCC1C(CC(=O)N(C)CCc1ccccc1)SC)OC)N(C)C(=O)C(NC(=O)C(C(C)C)N(C)C)C(C)C (centres unmarked) [N-{1-[(1-sec-Butyl-2-methoxy-4-{2-[2-(methyl-phenethyl-carbamoyl)-1-methylsulfanyl-ethyl]-pyrrolidin-1-yl}-4-oxo-butyl)-methyl-carbamoyl]-2-methyl-propyl}-2-dimethylamino-3-methyl-butyramide]	–	0.87	–
CCC(C)C(C(CC(=O)N1CCCC1C(CC(=O)NCCc1ccccc1)SCCO)OC)N(C)C(=O)C(NC(=O)C(C(C)C)N(C)C)C(C)C (centres unmarked) [N-{1-[(1-sec-Butyl-4-{2-[1-(2-hydroxy-ethylsulfanyl)-2-phenethylcarbamoyl-ethyl]-pyrrolidin-1-yl}-2-methoxy-4-oxo-butyl)-methyl-carbamoyl]-2-methyl-propyl}-2-dimethylamino-3-methyl-butyramide]	–	0.39	–
CCC(C)C(C(CC(=O)N1CCCC1C(CC(=O)NCCc1ccccc1)Sc1cccc(O)c1)OC)N(C)C(=O)C(NC(=O)C(C(C)C)N(C)C)C(C)C (centres unmarked) [N-{1-[(1-sec-Butyl-4-{2-[1-(3-hydroxy-phenylsulfanyl)-2-phenethylcarbamoyl-ethyl]-pyrrolidin-1-yl}-2-methoxy-4-oxo-butyl)-methyl-carbamoyl]-2-methyl-propyl}-2-dimethylamino-3-methyl-butyramide]	–	0.3	–
CCC(C)C(C(CC(=O)N1CCCC1[C@@H](CC(=O)NCCc1ccccc1)Sc1ccc(O)cc1)OC)N(C)C(=O)C(NC(=O)C(C(C)C)N(C)C)C(C)C (stereo partly drawn) [N-{1-[(1-sec-Butyl-4-{2-[1-(R)-(4-hydroxy-phenylsulfanyl)-2-phenethylcarbamoyl-ethyl]-pyrrolidin-1-yl}-2-methoxy-4-oxo-butyl)-methyl-carbamoyl]-2-methyl-propyl}-2-dimethylamino-3-methyl-butyramide]	–	0.6	–
CCC(C)C(C(CC(=O)N1CCCC1C(CC(=O)NCCc1ccccc1)Sc1ccc(NC(C)=O)cc1)OC)N(C)C(=O)C(NC(=O)C(C(C)C)N(C)C)C(C)C (centres unmarked) [N-{1-[(4-{2-[1-(4-Acetylamino-phenylsulfanyl)-2-phenethylcarbamoyl-ethyl]-pyrrolidin-1-yl}-1-sec-butyl-2-methoxy-4-oxo-butyl)-methyl-carbamoyl]-2-methyl-propyl}-2-dimethylamino-3-methyl-butyramide]	–	0.98	–
